Measurements: publication PMC2662459, “Developmental Toxicity of Ochratoxin A in Rat Embryo Midbrain Micromass Cultures” (International Journal of Molecular Sciences, 2008)
Values after ≈ are worked out from the molar mass of the structure shown. Structures can show the parent of a compound that is named as a salt. Where two headings read alike, the source gives them in different places.

Legend:
[1] = test system: GFAP expression (astrocytes); assay: Differentiation, immunoenzymatic determination of GFAP expression; type: cell-based, rat; settings: for Inhibition of differentiation, ID50: Expression of GFAP (OD, 450 nm): five days exposure, mean±SD from 3 independent experiments
Experimental: (§1) This study was carried out according to compliance with bioethical principles. Wistar albino rats were housed under standard laboratory condition of lighting (12 h dark/12 h light), temperature (20 ± 2 °C), and relative humidity (50 – 60%) with free access to commercial feed (Murigan) and tap water. Animals (10–12 week old) were mated overnight and the appearance of a vaginal plug on the next morning was considered as day one of pregnancy. Rat embryos were collected on day 13 of gestation. Procedures were followed essentially as described in INVITTOX Protocol No. 114 [23].
(§2) Tissues were pooled from a number of embryos, washed and incubated for 20 min at 37 °C in sequence in Earle’s balanced salt solution calcium and magnesium-free (CMF, GIBCO), and 1% trypsin (GIBCO) in CMF. Then the tissues were washed in CMF and culture medium (Ham’s F-12 nutrient mixture: foetal bovine serum: L-glutamine: penicillin/streptomycin - 88:10:1:1 v/v – all materials were from GIBCO). A single cell suspension was ensured by mechanical dissociation followed by passing the suspension through sterile 10 μm nylon mesh. Viable cells density was assessed by trypan blue exclusion assay using Bürker’s haemocytometer.
(§3) High-cell-density cultures were set up carefully as a 5–10 μL drop in the centre of each well of 96-well fibronectin coated microplate (BECTON DICKINSON), so that number of cells /well was 5 × 10^4. After 2 h incubation (37°C, 5% CO2) the cells were exposed to different concentrations of tested compounds and incubated five days. […]
(§4) To indicate the target cells damaged, immunofluorescent (IF) and immunoenzymatic (IE) staining was performed. […] IF staining fluorescence was examined using a fluorescent microscope (λ = 490 nm). In IE staining, a substrate (3,3’,5,5’-tetramethylbenzidine, SIGMA) was added (100 μL/well) and reaction was evaluated for 30 min at room temperature. […] The expression level of particular proteins was determined by measuring optical density at 450 nm. […]

[2] = test system: MAP2 expression (neurons in late stage of development); assay: Differentiation, immunoenzymatic determination of MAP2 expression; type: cell-based, rat; settings: for Inhibition of differentiation, ID50: Expression of MAP2 (OD, 450 nm): five days exposure, mean±SD from 3 independent experiments
Experimental: as §1, §2, §3, §4

[3] = test system: rat embryo midbrain micromass cultures; type: cell-based
Experimental: (§5) The values of drug concentration, which inhibited cells viability by 50% (IC50) and reduced differentiation by 50% (ID50) when compared to unexposed control cells, were calculated according to Hill’s equation (sigmoidal model of concentration-response curve). Statistically significant differences between mean values obtained in immunoenzymatic analysis were determined based on analysis of variance (ANOVA) followed by Tukey – Kramer post-hoc test. Values of P < 0.05 were considered as statistically significant. All calculations were done using LSW Data Analysis Toolbox ver. 1.1.1. (MDL® Information Systems, Inc.) in Microsoft Excel 2000 spreadsheet and Kyplot software (Koichi Yoshioka, version 2.0 beta 4). In order to classify embryotoxic potential the mean inhibition concentrations for differentiation (ID50) of test chemical was used and the biostatistically based prediction model (PM) was applied. It is based on the linear discriminate analysis of three functions: function I: 6.65 × log (ID50)–9.49; function II: 6.16 × log (ID50)–8.29; function III: –1.31 × log (ID50)–1.42. The function providing the highest value was used to determine the class of embryotoxicity (class 1 – non-embryotoxic, class 2 – weakly embryotoxic, class 3 – strongly embryotoxic).

[4] = in vitro; type: cell-based; settings: Wistar albino, rat
Experimental: as §1
as §2, with “A single cell suspension was ensured by mechanical dissociation followed by passing the suspension through sterile 10 μm nylon mesh.” left out, “haemocytometer. […]” for “haemocytometer.”
Cytotoxicity was quantified using neutral red uptake test (NRU). […] The eluted stain intensity (optical density, OD) was measured at 540 nm following at least 2 h incubation. Surviving cell number was directly related to the absorbance of the eluted stain. […]

[5] = test system: βIII tubulin expression (neurons in early stage of development); assay: Differentiation, immunoenzymatic determination of βIII-tubulin expression; type: cell-based, rat; settings: for Inhibition of differentiation, ID50: Expression of βIII tubulin (OD, 450 nm): five days exposure, mean±SD from 3 independent experiments
Experimental: as §1, §2, §3, §4

[6] = test system: mice offspring brain; settings: three month mice offspring exposed prenatally; cited from earlier work
[7] = test system: neurons and astrocytes of cerebellum; settings: protein and DNA synthesis, rat embryo brain aged 15–16 days, cited from earlier work
[8] = test system: rat embryo midbrain micromass cultures (neurospheres); assay: Differentiation, computerised image analysis of haematoxylin stained neurospheres; type: cell-based
Experimental: as §1, §2
High-cell-density cultures were set up carefully as a 5–10 μL drop in the centre of each well of 96-well fibronectin coated microplate (BECTON DICKINSON), so that number of cells /well was 5 × 10^4. After 2 h incubation (37°C, 5% CO2) the cells were exposed to different concentrations of tested compounds and incubated five days. Then dual assessment i.e. cytotoxicity and an impact of tested compound on cells differentiation (embryotoxicity) were done in the same cultures.
After removing the eluted solution, the cells were fixed in 10% formaldehyde for 20 min and stained (approximately 10 s) with Gill’s haematoxylin. Morphometric analysis was performed on digitised images of cells taken with Nikon SMZ stereoscopic microscope linked to Panasonic CCD BP-KR 222E colour camera. The number of neurospheres (containing differentiated neural cells) was counted and their total and individual area was measured using computer image analysis software (LUCIA Measurement System).
as §5, with “It is based on the linear discriminate analysis of three functions: function I: 6.65 × log (ID50)–9.49; function II: 6.16 × log (ID50)–8.29; function III: –1.31 × log (ID50)–1.42.” left out

[9] = test system: foetuses of pregnant rats; settings: single oral dose; cited from earlier work
[10] = test system: neurons and astrocytes of ventral mesencephalon; settings: protein and DNA synthesis, rat embryo brain aged 15–16 days, cited from earlier work
[11] = five days exposure, computerised image analysis, mean±SD from 3 independent experiments

O=c1[nH]cc(F)c(=O)[nH]1 [5-FU, 5-fluorouracil, reference compound]
Inhibition of differentiation, ID50: Expression of GFAP (OD, 450 nm) [1]: 0.18 ± 0.012 µg/mL | Inhibition of differentiation, ID50: Expression of MAP2 (OD, 450 nm) [2]: 0.16 ± 0.010 µg/mL | Class of embryotoxicity (prediction model) ([3]; rat): class 3 | IC50 [4]: 0.15 ± 0.01 µg/mL (≈ 1.15 µM) | Inhibition of differentiation, ID50: Expression of βIII tubulin (OD, 450 nm) [5]: 0.14 ± 0.010 µg/mL

C[C@@H]1Cc2c(Cl)cc(C(=O)N[C@@H](Cc3ccccc3)C(=O)O)c(O)c2C(=O)O1 [OTA, ochratoxin A]
IC50/ID50 ratio: GFAP ([1]; NRU IC50 over ID50): 0.5 | Inhibition of differentiation, ID50: Expression of GFAP (OD, 450 nm) [1]: 4.87 ± 0.351 µg/mL | Tissue weight and DNA content, cerebral hemispheres [6]: 80 % of control | Tissue weight and DNA content, remainder of the brain [6]: 90 % of control | Median inhibition concentration, astrocytes cerebellum [7]: ~27.9 ± 3.6 µg/mL | Median inhibition concentration, neurons cerebellum [7]: ~9.7 ± 2.8 µg/mL | IC50 ([7]; read-out: Median inhibition concentration, astrocytes cerebellum): ~69 µM | IC50 ([7]; read-out: Median inhibition concentration, neurons cerebellum): ~24 µM | IC50/ID50 ratio: Number of neurospheres ([8]; NRU IC50 over ID50): 0.7 | IC50/ID50 ratio: Particular area of neurospheres ([8]; NRU IC50 over ID50): 1.9 | IC50/ID50 ratio: Total area of neurospheres ([8]; NRU IC50 over ID50): 1.1 | Inhibition of differentiation, ID50: Number of neurospheres [8, 11]: 3.40 ± 1.100 µg/mL | Inhibition of differentiation, ID50: Particular area of neurospheres [8, 11]: 1.29 ± 0.923 µg/mL | Inhibition of differentiation, ID50: Total area of neurospheres [8, 11]: 2.19 ± 0.245 µg/mL | Differentiated cells after exposure to the two highest concentrations ([8]; two highest concentrations, 5 days, haematoxylin staining): no differentiated cells were observed | IC50/ID50 ratio: MAP2 ([2]; NRU IC50 over ID50): 0.6 | Inhibition of differentiation, ID50: Expression of MAP2 (OD, 450 nm) [2]: 3.90 ± 0.350 µg/mL | Minimum effective teratogenic dose [9]: 2.75 mg/kg b.w. | Median inhibition concentration, astrocytes ventral mesencephalon [10]: ~16.2 ± 2.15 µg/mL | Median inhibition concentration, neurons ventral mesencephalon [10]: ~5.6 ± 0.40 µg/mL | IC50 ([10]; read-out: Median inhibition concentration, astrocytes ventral mesencephalon): ~40 µM | IC50 ([10]; read-out: Median inhibition concentration, neurons ventral mesencephalon): ~14 µM | IC50/ID50 ratio, all endpoints ([3]; all differentiation endpoints): < 2 | ID50, all endpoints of differentiation ([3]; for all endpoints): < 10 µg/mL | Class of embryotoxicity (prediction model) ([3]; function with highest value from ID50): class 3 | IC50 at 5 days ([4]; five days exposure, mean±SD from 3 independent experiments, read-out: Cytotoxicity IC50 (Viability, Neutral Red OD, 540 nm)): 2.52 ± 0.062 µg/mL (≈ 6.24 µM) | IC50/ID50 ratio: βIII tubulin ([5]; NRU IC50 over ID50): 0.5 | Inhibition of differentiation, ID50: Expression of βIII tubulin (OD, 450 nm) [5]: 4.84 ± 0.581 µg/mL

CC1(C)S[C@@H]2[C@H](NC(=O)Cc3ccccc3)C(=O)N2[C@H]1C(=O)O [Pen-G, Penicillin G sodium salt, reference compound]
Embryotoxicity at fixed concentration [3]: not embryotoxic | Class of embryotoxicity (prediction model) ([3]; rat): class 1
